Results on 24 compounds are retold here after patent US10774082B2, “Quinazoline compound” (Astellas Pharma Inc., priority 2017, dated 2020).

In assay [1] the target is T1, KRAS G12C/SOS/c-Raf complex (Homo sapiens, UniProt P01116, G12C).
T1 construct: Biotinylated AviTag-KRAS G12C (amino acid region 1-185, GDP)
The assay is described as follows: KRAS G12C/SOS/c-Raf complex formation inhibitory action (TR-FRET). As to conditions: one hour at room temperature, read-out: IC50 (KRAS G12C/SOS/c-Raf complex formation inhibition). The assay is classed as biochemical. Put shortly:
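Biotin-AviTag KRAS G12C (1-185, GDP-bound) was mixed with compound (4,000 to 4 nM stock dilutions), SOS (564-1049), GST-c-Raf (51-131) and GTP in pH 7.4 HEPES/NaCl/MgCl2/Tween buffer for 1 h at room temperature. Complex formation was read by TR-FRET with Eu-streptavidin and ULight-anti-GST (ex 337 nm, em 620/665 nm).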
Background: TR-FRET usually uses a lanthanide donor and a delayed reading to cut background.

For the next assay, the system named is pERK in NCI-H1373 tumor. The assay is described as follows: Intratumoral pERK inhibitory action in NCI-H1373 tumor of nude mice (TR-FRET). Type of assay: in vivo, mouse. Conditions: for inhibition at 3 mg/kg: read-out: pERK inhibition (%); for inhibition at 10 mg/kg / pERK inhibition (%): 10 mg/kg. How it is done:
Evaluation of Intratumoral pERK Inhibitory Action
The phosphorylation amount of ERK in tumor sample after administration of test compound was examined by using pERK measurement kit (Advanced ERK phospho-T202/Y204 kit, Cisbio co., Ltd) through a TR-FRET method.
2.0 to 5.0×10^6 NCI-H1373 cells were prepared by using a solution in which an equivalent amount of Matrigel (Becton. Dickinson and Company) was added to PBS, were injected subcutaneously in a volume of 100 μL and planted to male nude mice of 4-5 weeks old (CAnN.Cg-Foxn 1 nu/CrlCrlj (nu/nu), Charles River Laboratories Japan, Inc.), and then the male nude mice were used for the test 15 to 26 days later. The test was conducted with three mice in a solvent group and three mice in a test compound administration group, and the test compounds were prepared by using a solvent such that the dosage thereof is as indicated in Table 4. The test compound was administered subcutaneously or orally. For subcutaneous administration, physiological saline supplemented with equimolar hydrochloric acid was used as a solvent. For oral administration, 6% 2-hydroxypropyl-β-cyclodextrin (Sigma-Aldrich Co. LLC) was used as a solvent. Six hours after the administration, a tumor was excised from a cervical dislocated mouse under isoflurane anesthesia, and a part thereof was put into a 2 mL Eppendorf tube and frozen using liquid nitrogen. The tumor sample was stored in a deep freezer at −80° C. until it was subjected to the pERK measurement test.
500 μL of lysis buffer 1 (Phospholysis buffer [Cisbio Co., Ltd], Complete EDTA free [Roche Diagnostics K.K.], Phosphatase inhibitor cocktail 2 [Sigma-Aldrich Co. LLC]) and one bead (5 mm YTZ ball [Nikkato Corp.]) was added to the tumor sample, and crushed (frequency 25/s for 3 minutes) by using Tissue Lyser II (QIAGEN GmbH). The whole amount was transferred to a new tube and centrifuged (20,400×g for 10 minutes, 4° C.) by using a micro amount high speed cooling centrifuge so as to obtain a tumor lysate which is a supernatant. Protein quantification of tumor lysate was performed by using a protein quantification kit (Pierce 660 nm Protein Assay Kit [Thermo Fisher Scientific Inc.]), and each sample was diluted by using lysis buffer 2 (Phosphorysis buffer [Cisbio Co., Ltd], Blocking Agent [attached to pERK measurement kit]) such that the amount thereof is to be a final concentration of 0.5 μg/μL.
Each of p-ERK1/2 Cryptate antibody and p-ERK1/2 d2 antibody (attached to pERK measurement kit) was diluted 20-fold with each detection buffer (attached to pERK measurement kit), and thereby a mixed solution of these two types of antibodies was prepared. A mixed solution of antibody was added to a 384 well plate at a volume of 4 μL/well. Further, tumor lysate diluted to 0.5 μg/μL was added at a volume of 16 μL/well. After standing at room temperature in a wet box for about 17 hours, the fluorescence intensity at 620 nm and 665 nm was measured under the condition of excitation wavelength of 337 nm by using EnVision 2103 Multilabel Reader (PerkinElmer Co., Ltd.).

Setting [2] is: Mus musculus, NCI-H1373, po, 6 h, Oral administration, tumor six hours after administration.
The mark [3] stands for this setting: Mus musculus, NCI-H1373, sc, 6 h, Subcutaneous administration, tumor six hours after administration.
Setting [4] is: Mus musculus, NCI-H1373, sc, 6 h.
Setting [5] is: Oral administration, tumor six hours after administration.

For orientation: inhibition means the share of the control response that was lost under treatment.

Structures are written as SMILES. Like-named read-outs stand apart in the source and are kept apart here.

T1 sequence (P01116 1-185 isoform P01116-2 G12C, one chain of several): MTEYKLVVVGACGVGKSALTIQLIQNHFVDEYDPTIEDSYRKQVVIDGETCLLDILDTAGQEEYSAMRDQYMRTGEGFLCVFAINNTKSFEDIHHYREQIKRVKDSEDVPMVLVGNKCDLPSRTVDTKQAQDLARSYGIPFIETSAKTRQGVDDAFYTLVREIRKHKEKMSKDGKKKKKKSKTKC

As to `C=CC(=O)N1CC2(CCN(c3nc(OC4CCN(C5CCOCC5)CC4)nc4c(OCC(F)(F)F)c(-c5c(C)ccc6[nH]ncc56)c(C=C)cc34)CC2)C1` (single isomer, unassigned) [Ex 39], in assay [1], the IC50 is 14 nM. The inhibition at 10 mg/kg in the assay on pERK in NCI-H1373 tumor (setting [2]) was 43%.
Turning to `C=CC(=O)N1CCN(c2nc(OC3CCN(C)CC3)nc3c(F)c(-c4c(C)ccc5[nH]ncc45)c(Cl)cc23)CC1` [Compound C, reference compound], in assay [1], the IC50 stood at 68 nM. This compound returned an inhibition at 30 mg/kg with pERK in NCI-H1373 tumor (Mus musculus, NCI-H1373, sc, 6 h, Subcutaneous administration, 30 mg/kg, tumor six hours after administration) of 54%.
Regarding `C=CC(=O)N1CC2(CCN(c3nc(OC4CCN(C)CC4)nc4c(OCC)c(-c5c(C)ccc6[nH]ncc56)c(C5CC5)cc34)CC2)C1` [Ex 2], the IC50 in assay [1] is 37 nM. In the assay with pERK in NCI-H1373 tumor (setting [3]), this compound yielded an inhibition at 1 mg/kg of 54%.
Take `C=CC(=O)N1CC2(CCN(c3nc(OC4CCN(C)CC4)nc4c(OCC(F)F)c(-c5c(C)ccc6[nH]ncc56)c(C5CC5)cc34)CC2)C1` [Ex 3]: the IC50 in assay [1] was 29 nM. The inhibition at 1 mg/kg with pERK in NCI-H1373 tumor (setting [3]) turned out to be 57%.
Taken in the same sequence, the figures for `C=CC(=O)N1CC2(CCN(c3nc(OC[C@@H]4CCCN4C)nc4c(OCC(F)F)c(-c5c(C)ccc6[nH]ncc56)c(C5CC5)cc34)CC2)C1` [Ex 4] were 35 nM and 58%.
As for `C=CC(=O)N1CC2(CCN(c3nc(OC4CCN(CC)CC4)nc4c(OCC)c(-c5c(C)ccc6[nH]ncc56)c(C=C)cc34)CC2)C1` [Ex 7], the IC50 in assay [1] was 33 nM. In addition, the inhibition at 3 mg/kg in the assay on pERK in NCI-H1373 tumor (Mus musculus, NCI-H1373, sc, 6 h, Subcutaneous administration, 3 mg/kg, tumor six hours after administration) was 59%.
For the compound `C=CC(=O)N1CC2(CCN(c3nc(OC4CCN(C)CC4)nc4c(OCC)c(-c5c(C)ccc6[nH]ncc56)c(C=C)cc34)CC2)C1` [Ex 24], the IC50 in assay [1] turned out to be 21 nM. In the assay on pERK in NCI-H1373 tumor (Mus musculus, NCI-H1373, po, 6 h, Oral administration, 40 mg/kg, tumor six hours after administration), this compound showed an inhibition at 40 mg/kg of 72%.
Regarding `C=CC(=O)N1CC2(CCN(c3nc(OC4CCN(CCOC)CC4)nc4c(OCC(F)(F)F)c(-c5c(C)ccc6[nH]ncc56)c(C5CC5)cc34)CC2)C1` [Ex 25], the IC50 in assay [1] was found to be 48 nM. In the assay with pERK in NCI-H1373 tumor (setting [2]), this compound yielded an inhibition at 10 mg/kg of 66%.
Taken in the same sequence, the figures for `C=CC(=O)N1CC2(CCN(c3nc(OC4CCN(CCOC)CC4)nc4c(OCC(F)(F)F)c(-c5c(C)ccc6[nH]ncc56)c(C=C)cc34)CC2)C1` [Ex 26] were 41 nM and 50%.
Taken in the same sequence, the figures for `C=CC(=O)N1CC2(CCN(c3nc(OC4CCN(CCCOC)CC4)nc4c(OCC(F)(F)F)c(-c5c(C)ccc6[nH]ncc56)c(C5CC5)cc34)CC2)C1` [Ex 28] were 38 nM and 46%.
Taken in the same sequence, the figures for `C=CC(=O)N1CC2(CCN(c3nc(OC4CCN(C5CCOCC5)CC4)nc4c(OCC(F)(F)F)c(-c5c(C)ccc6[nH]ncc56)c(C=C)cc34)CC2)C1` [Ex 30] were 45 nM and 56%.
Regarding `C=CC(=O)N1CC2(CCN(c3nc(OC[C@@H]4CCCN4C)nc4c(OC5CCC5)c(-c5c(C)ccc6[nH]ncc56)c(C=C)cc34)CC2)C1` [Example 15], the IC50 in assay [1] was 52 nM. Further, the inhibition at 3 mg/kg in the assay with pERK in NCI-H1373 tumor (setting [4]) worked out at 53%.
Taken in the same sequence, the figures for `C=CC(=O)N1CC2(CCN(c3nc(OC[C@@H]4CCCN4C)nc4c(OCC)c(-c5c(C)ccc6[nH]ncc56)c(C=C)cc34)CC2)C1` [Example 16] were 45 nM and 51%.
Turning to `C=CC(=O)N1CC2(CCN(c3nc(OC4CCN(CCOCC)CC4)nc4c(OCC(F)(F)F)c(-c5c(C)ccc6[nH]ncc56)c(C=C)cc34)CC2)C1` [Example 29], in assay [1], the IC50 amounted to 49 nM. Further, the inhibition at 10 mg/kg with pERK in NCI-H1373 tumor (setting [2]) was 62%.
Taken in the same sequence, the figures for `C=CC(=O)N1CC2(CCN(c3nc(OC4CCN(CCOC)CC4)nc4c(OCC(F)F)c(-c5c(C)ccc6[nH]ncc56)c(C5CC5)cc34)CC2)C1` [Example 32] were 39 nM and 55%.
Taken in the same sequence, the figures for `C=CC(=O)N1CC2(CCN(c3nc(OC4CCN(C5COC5)CC4)nc4c(OCC(F)(F)F)c(-c5c(C)ccc6[nH]ncc56)c(C=C)cc34)CC2)C1` [Example 33] were 44 nM and 71%.
Turning to `C=CC(=O)N1CC2(CCN(c3nc(OC4CCN(C5COC5)CC4)nc4c(OCC)c(-c5c(C)ccc6[nH]ncc56)c(C5CC5)cc34)CC2)C1` [Example 34], the IC50 in assay [1] came out at 36 nM. Further, the inhibition at 10 mg/kg in the assay on pERK in NCI-H1373 tumor (setting [2]) amounted to 54%.
Turning to `C=CC(=O)N1CC2(CCN(c3nc(OC4CCN(CCOC)CC4)nc4c(OCC(F)(F)F)c(-c5c(C)ccc6[nH]ncc56)c(C5CC5)cc34)CC2)C1` [Example 35], the IC50 in assay [1] stood at 17 nM. Also, the “pERK inhibition (%)” value in the assay with pERK in NCI-H1373 tumor (setting [5]) worked out at 68%.
Taken in the same sequence, the figures for `C=CC(=O)N1CC2(CCN(c3nc(OC4CCN(CCOCC)CC4)nc4c(OCC(F)(F)F)c(-c5c(C)ccc6[nH]ncc56)c(C=C)cc34)CC2)C1` [Example 37] were 17 nM and 63%.
As for `C=CC(=O)N1CC2(CCN(c3nc(OC4CCN(CC(C)(C)O)CC4)nc4c(OCC(F)(F)F)c(-c5c(C)ccc6[nH]ncc56)c(C=C)cc34)CC2)C1` [Example 40], in assay [1], the IC50 stood at 15 nM. Moreover, in the assay on pERK in NCI-H1373 tumor (setting [5]), the “pERK inhibition (%)” value amounted to 58%.
For `C=CC(=O)N1CC2(CCN(c3nc(N4CCN(C)CC4)nc4c(OCC(F)(F)F)c(-c5c(C)ccc6[nH]ncc56)c(C=C)cc34)CC2)C1` [Example 50], the IC50 in assay [1] was found to be 50 nM. The same compound registered an inhibition at 10 mg/kg in the assay with pERK in NCI-H1373 tumor (setting [2]) of 63%.
Taken in the same sequence, the figures for `C=CC(=O)N1CC2(CCN(c3nc(OC4CCN(C)CC4F)nc4c(OCC(F)(F)F)c(-c5c(C)ccc6[nH]ncc56)c(C=C)cc34)CC2)C1` (stereo not drawn) [Example 52] were 56 nM and 68%.
Taken in the same sequence, the figures for `C=CC(=O)N1CC2(CCN(c3nc(OC4CCN(Cc5ccccn5)CC4)nc4c(OCC(F)(F)F)c(-c5c(C)ccc6[nH]ncc56)c(C=C)cc34)CC2)C1` [Example 56] were 63 nM and 53%.
Taken in the same sequence, the figures for `C=CC(=O)N1CC2(CCN(c3nc(N4CC(N(C)C)C4)nc4c(OCC(F)(F)F)c(-c5c(C)ccc6[nH]ncc56)c(C=C)cc34)CC2)C1` [Example 65] were 46 nM and 68%.
